# Measured values taken from patent US20120165384A1, “INHIBITION OF HISTONE ACETYLTRANSFERASES BY CTK7A AND METHODS THEREOF” (JAWAHARLAL NEHRU CENTRE FOR ADVANCED SCIENTIFIC RESEARCH, priority 2009, published 2012).
# Legend:
# CBP = molecular target: T1, CBP (Homo sapiens, UniProt Q92793); assay: HAT assay with recombinant CBP; format: biochemical
# T1 construct: Recombinant baculovirus expressing full-length FLAG-tagged CARM1,CBP and PCAF; FLAG; made in house; host or cells: baculovirus-infected Sf21 cells
# Experimental: (§1) Recombinant baculovirus expressing full-length FLAG-tagged CARM1,CBP and PCAF were purified by immunoaffinity chromatography using M2-agarose beads followed by elution with FLAG peptide. Baculovirus-expressed full-length hexahistidine-tagged p300, and G9a were purified using Ni-NTA affinity chromatography as described previously^30.
# (§2) HAT gel fluorography/autoradiography assays were performed as previously reported^30. Kinetic analysis of p300 HAT inhibition was performed as reported earlier^31 in the presence of (0, 30 and 50 μM) CTK7A. The obtained values were plotted as a lineweaver burk plot using Graphpad Prism software. For p300 Autoacetylation assay, reactions of p300 full length (80 ng) were carried out in HAT assay buffer at 30° C. for 10 minutes with or without the protein (NPM1) followed by addition of 1 μl of 4.7 Ci/mmol [^3H] acetyl CoA (NEN-PerkinElmer) and were further incubated for another 10 min in a 30 μl reaction. GAPDH was used as positive control. The radio-labeled acetylated p300 were processed by fluorography followed by autoradiography.
# PCAF = molecular target: T2, PCAF (Homo sapiens, UniProt Q92831); assay: HAT assay with recombinant PCAF; format: biochemical
# T2 construct: Recombinant baculovirus expressing full-length FLAG-tagged CARM1,CBP and PCAF; FLAG; made in house; host or cells: baculovirus-infected Sf21 cells
# T2 sequence (Q92831 whole entry, species assumed): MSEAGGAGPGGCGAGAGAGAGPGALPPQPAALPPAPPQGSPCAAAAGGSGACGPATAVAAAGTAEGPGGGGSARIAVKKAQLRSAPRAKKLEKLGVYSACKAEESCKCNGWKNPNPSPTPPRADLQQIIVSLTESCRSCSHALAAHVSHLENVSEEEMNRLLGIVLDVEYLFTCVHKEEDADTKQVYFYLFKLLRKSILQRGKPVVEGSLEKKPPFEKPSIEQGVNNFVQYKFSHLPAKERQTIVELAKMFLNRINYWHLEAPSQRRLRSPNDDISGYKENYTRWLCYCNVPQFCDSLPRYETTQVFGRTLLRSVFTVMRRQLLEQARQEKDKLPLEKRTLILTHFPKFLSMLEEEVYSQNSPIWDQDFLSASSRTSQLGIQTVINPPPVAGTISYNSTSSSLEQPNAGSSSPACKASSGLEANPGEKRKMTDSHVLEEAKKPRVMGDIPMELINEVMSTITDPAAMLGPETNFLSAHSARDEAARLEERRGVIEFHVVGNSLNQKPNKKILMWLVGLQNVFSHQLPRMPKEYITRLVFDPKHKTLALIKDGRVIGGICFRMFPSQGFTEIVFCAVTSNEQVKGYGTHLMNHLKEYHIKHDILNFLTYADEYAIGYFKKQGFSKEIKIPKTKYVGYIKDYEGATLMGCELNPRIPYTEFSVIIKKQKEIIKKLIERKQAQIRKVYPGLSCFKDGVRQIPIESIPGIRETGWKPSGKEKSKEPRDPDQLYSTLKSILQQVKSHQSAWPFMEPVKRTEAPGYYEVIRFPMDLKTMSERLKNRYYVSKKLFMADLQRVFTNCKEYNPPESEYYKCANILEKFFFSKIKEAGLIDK
# Experimental: as §1, §2
# Tip60 = Tip60 (Homo sapiens, UniProt Q92993); assay: HAT assay, Tip60; format: biochemical; settings: even at 100 μM
# Chain of Tip60 (Q92993 whole entry, species assumed): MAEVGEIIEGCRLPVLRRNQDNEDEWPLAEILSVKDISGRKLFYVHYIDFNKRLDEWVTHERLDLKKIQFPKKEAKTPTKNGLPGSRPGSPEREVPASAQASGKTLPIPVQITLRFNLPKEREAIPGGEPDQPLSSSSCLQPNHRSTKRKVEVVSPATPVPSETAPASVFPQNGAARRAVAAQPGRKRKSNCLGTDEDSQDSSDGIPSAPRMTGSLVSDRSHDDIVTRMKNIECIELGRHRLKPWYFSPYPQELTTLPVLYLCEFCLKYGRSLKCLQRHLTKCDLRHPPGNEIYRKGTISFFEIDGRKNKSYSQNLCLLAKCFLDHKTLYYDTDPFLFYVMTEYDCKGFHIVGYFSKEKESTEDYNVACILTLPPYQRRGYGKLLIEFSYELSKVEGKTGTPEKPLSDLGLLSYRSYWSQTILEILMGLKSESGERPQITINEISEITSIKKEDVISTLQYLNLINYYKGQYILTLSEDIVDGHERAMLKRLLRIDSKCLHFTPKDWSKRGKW
# Experimental: as §2
# HDAC1 = HDAC1 (Homo sapiens, UniProt Q13547); assay: Histone deacetylase assay, HDAC1; format: biochemical; settings: even at 100 μM
# Chain of HDAC1 (Q13547 whole entry, species assumed): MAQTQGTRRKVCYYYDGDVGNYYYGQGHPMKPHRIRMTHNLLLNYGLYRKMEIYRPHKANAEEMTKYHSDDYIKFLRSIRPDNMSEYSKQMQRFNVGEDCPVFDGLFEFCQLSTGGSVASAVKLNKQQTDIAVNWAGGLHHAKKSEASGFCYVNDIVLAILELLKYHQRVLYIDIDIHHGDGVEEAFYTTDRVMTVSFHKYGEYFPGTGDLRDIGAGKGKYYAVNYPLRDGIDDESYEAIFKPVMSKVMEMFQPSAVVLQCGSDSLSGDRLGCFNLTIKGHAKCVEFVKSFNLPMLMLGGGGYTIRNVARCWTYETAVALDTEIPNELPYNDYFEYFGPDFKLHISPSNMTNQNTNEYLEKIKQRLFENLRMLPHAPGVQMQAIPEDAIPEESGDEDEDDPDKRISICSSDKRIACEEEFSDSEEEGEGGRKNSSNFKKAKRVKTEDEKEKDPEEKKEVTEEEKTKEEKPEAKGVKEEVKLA
# Experimental: (§3) The deacetylation assay was performed as per standard protocol^31. For SirT2 deacetylase assay, 50 ng of bacterially expressed, recombinant enzyme was added in the presence or absence of cofactor NAD^+. HMTase was performed as reported earlier^31.
# SIRT2 = molecular target: T3, SIRT2 (Homo sapiens, UniProt Q8IXJ6); assay: SirT2 deacetylase assay; format: biochemical; settings: even at 100 μM
# T3 construct: made in house
# T3 sequence (Q8IXJ6 1-389): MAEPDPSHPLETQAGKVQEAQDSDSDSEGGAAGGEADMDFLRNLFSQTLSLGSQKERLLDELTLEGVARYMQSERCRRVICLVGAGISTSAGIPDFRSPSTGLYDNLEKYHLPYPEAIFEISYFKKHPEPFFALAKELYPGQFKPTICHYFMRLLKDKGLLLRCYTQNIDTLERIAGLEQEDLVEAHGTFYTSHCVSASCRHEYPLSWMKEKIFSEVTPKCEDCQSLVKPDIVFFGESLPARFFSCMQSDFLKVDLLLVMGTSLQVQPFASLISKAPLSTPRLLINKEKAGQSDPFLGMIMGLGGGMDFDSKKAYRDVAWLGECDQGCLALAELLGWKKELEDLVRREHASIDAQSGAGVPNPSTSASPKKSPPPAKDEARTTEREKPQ
# Experimental: as §3
# KB cells = assay: Senescence-associated β-gal (SA-β-gal) activity analysis; format: cell-based
# Experimental: SA-β-gal activity was analyzed in KB cells as described earlier^47.
# [1] = tested on: cyclin E and cyclin D1 expression in KB cells; assay: Cyclin expression in KB cells; format: cell-based
# Experimental: KB cells were maintained in Dullbecco's modified Eagle medium (DMEM) with 10% fetal bovine serum (FBS) at 37° C. with a 5% CO2 atmosphere in a humidified incubator. For IFNγ and GSNO treatment, KB cells were incubated in the presence of IFNγ 10 ng ml^−1 for an additional 16 h and 24 h respectively. Immunofluorescent staining of cells for confocal microscopy was carried out as described previously^30. CTK7A treatment was done for 24 h followed by acid extraction of histone and immunoblotting as per standard protocol^31. For whole cell extract preparation RIPA buffer (Tris-HCl 50 mM, pH 7.4 NP-40 1%, Na-deoxycholate 0.25%, NaCl 150 mM, EDTA 1 mM, Phenylmethylsulfonyl fluoride (PMSF), 1 mM Na3VO4, 1 mM NaF and protease inhibitor cocktail) was used.
# KB cell xenografts = assay: Xenograft growth assay; format: in vivo, nude mice (BALB/c); settings: i.p. 100 mg/kg body weight/twice a day; p<0.05
# Experimental: Animal experiments were performed with the approval by authorized ethics Committee. Sixteen nude mice (BALB/c) were included in the experiments (10 male and 6 female mice). Mice were kept in isolators in a pathogen free environment. All nude mice were 3-4 weeks old at the start of the experiments. KB cells, 2×10^6 cells were inoculated in each mice in the right and left flanks, respectively. Mice were then divided in two groups (5 males and 3 females) in each group. After the tumors grown to palpable in size, CTK7A treatment were given intraperitoneally (i.p) with 100 mg/kg body weight/twice a day. Tumors were measured once in three days with a caliper and their volumes were calculated by the formula: 0.52×D1×(D2)^2, where ‘D1’ and ‘D2’ are, respectively, the longest and shortest dimension. The last dose of the compound (CTK7A) was administered four hour before sacrificing it. Tumors were removed and put into liquid nitrogen or were fixed in 10% formalin for 1-2 h to make blocks to be used for IHC. For comparing tumor sizes between treated and control one-way ANOVA was performed using “Sigmaplot Software”. P-value<0.05 was considered as statistically significant.
# p300 = p300 (Homo sapiens, UniProt Q09472); assay: HAT assay with recombinant p300; format: biochemical; set-up: hexahistidine; made in house; host or cells: baculovirus-infected Sf21 cells
# Chain of p300 (Q09472 whole entry, species assumed): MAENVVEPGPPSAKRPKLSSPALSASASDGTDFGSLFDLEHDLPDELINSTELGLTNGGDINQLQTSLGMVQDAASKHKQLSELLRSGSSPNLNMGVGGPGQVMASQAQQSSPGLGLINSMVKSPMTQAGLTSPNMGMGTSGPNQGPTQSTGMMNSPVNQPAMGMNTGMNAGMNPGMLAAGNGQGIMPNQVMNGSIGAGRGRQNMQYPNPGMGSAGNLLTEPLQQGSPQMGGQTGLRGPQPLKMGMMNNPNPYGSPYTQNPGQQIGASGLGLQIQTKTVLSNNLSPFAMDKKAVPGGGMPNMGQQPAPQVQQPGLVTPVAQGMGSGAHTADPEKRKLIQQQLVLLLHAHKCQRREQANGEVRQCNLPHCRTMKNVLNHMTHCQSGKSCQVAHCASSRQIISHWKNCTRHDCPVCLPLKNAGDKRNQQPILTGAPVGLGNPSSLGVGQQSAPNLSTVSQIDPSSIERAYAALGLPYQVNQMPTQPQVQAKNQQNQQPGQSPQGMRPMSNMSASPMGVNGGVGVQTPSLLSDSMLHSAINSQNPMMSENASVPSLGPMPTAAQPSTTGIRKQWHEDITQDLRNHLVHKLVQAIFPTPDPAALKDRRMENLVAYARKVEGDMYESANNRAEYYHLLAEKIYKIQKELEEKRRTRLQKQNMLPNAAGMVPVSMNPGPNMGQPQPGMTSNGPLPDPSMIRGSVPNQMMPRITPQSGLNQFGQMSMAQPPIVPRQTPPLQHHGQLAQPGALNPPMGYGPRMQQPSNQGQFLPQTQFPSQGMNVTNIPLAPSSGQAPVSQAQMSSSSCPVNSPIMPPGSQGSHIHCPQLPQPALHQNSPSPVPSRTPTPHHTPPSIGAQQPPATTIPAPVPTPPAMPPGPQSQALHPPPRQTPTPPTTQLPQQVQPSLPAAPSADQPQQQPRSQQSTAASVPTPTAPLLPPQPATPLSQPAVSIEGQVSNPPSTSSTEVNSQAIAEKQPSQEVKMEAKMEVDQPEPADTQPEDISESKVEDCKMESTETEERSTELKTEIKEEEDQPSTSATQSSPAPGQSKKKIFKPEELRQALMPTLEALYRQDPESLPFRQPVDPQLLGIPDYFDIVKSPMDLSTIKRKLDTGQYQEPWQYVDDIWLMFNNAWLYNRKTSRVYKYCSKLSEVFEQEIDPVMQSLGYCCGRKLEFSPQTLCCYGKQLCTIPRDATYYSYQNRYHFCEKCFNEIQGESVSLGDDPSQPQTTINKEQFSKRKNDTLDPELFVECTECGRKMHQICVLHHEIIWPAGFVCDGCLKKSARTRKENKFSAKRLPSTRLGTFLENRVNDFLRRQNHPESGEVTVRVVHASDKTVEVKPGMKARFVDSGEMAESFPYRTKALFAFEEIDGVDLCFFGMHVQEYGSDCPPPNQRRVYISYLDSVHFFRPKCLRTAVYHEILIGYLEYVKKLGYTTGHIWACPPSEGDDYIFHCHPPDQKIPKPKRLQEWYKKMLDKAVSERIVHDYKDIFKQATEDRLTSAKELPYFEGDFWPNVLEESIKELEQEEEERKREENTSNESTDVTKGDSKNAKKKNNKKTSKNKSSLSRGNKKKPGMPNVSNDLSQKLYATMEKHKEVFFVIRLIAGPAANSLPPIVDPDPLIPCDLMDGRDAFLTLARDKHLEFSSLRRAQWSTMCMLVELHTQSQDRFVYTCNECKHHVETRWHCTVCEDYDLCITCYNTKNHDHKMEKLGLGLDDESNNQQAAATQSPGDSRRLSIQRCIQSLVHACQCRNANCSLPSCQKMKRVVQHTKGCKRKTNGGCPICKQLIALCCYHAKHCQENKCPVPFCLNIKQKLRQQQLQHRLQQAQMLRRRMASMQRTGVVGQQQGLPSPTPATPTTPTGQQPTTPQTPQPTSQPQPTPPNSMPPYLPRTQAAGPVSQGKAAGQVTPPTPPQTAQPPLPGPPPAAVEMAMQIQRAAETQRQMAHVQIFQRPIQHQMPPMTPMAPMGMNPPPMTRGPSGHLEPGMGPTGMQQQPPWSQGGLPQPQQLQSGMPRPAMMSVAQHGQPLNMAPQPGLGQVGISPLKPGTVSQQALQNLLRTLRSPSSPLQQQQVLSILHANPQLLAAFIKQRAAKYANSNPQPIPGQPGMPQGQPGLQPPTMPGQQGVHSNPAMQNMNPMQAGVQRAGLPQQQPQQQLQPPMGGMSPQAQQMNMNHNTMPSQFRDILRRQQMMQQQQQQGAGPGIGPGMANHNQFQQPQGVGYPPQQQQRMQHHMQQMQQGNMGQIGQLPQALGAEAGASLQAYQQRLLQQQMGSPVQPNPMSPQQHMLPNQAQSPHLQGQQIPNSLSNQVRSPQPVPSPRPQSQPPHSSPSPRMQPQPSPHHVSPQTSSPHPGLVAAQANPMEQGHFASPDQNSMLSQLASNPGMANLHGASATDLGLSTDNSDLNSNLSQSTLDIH
# Experimental: as §1, §2
smiles,measurement,setting,value
"COc1cc([O-])cc(C=CC2=NN(c3ccc(C(=O)[O-])cc3)C(C=Cc3cc([O-])cc(OC)c3)C2)c1.[Na+].[Na+].[Na+] (centres unmarked) [CTK7A, Sodium 4-(3,5-bis(3-methoxy-5-oxidostyryl)-4,5dihydro-1H-pyrazole-1-yl)benzoate]",inhibition of CBP HAT activity,CBP,inhibit
same,inhibition of PCAF HAT activity,PCAF,inhibit
same,effect on Tip60 activity,Tip60,unaffected
same,effect on HDAC1 activity,HDAC1,unaffected
same,effect on SIRT2 activity,SIRT2,unaffected
same,expression of senescence associated beta-galactosidase (SA-β-gal),KB cells,induced
same,cyclin D1 expression,[1],affected marginally
same,cyclin E expression,[1]; dose dependent,down regulated
same,KB cell tumors smaller than in control untreated mice,KB cell xenografts,50%
same,inhibition of p300 HAT activity,p300,inhibit
same,type of inhibition pattern for p300,"p300; both substrates, acetyl-coA and core histone, 0, 30 and 50 μM",non-competitive
